Where two headings read alike, the source gives them in different places. Values belong to the compound of their own block, whether it stands above or below them.
Legend:
[1] = in vitro; conditions: human
[2] = target: gp120 (Human immunodeficiency virus type 1 group M subtype B, UniProt P03375); assay: biochemical; format: binding, HIV
[3] = system: HIV-2 (ROD); assay: Anti-HIV-2 activity in MT-4 cell cultures
[4] = system: HIV-1 (NL4.3); assay: Anti-HIV-1 activity in MT-4 cell cultures
[5] = system: EV71 BrCr laboratory-adapted strain; assay: Anti-EV71 assay, BrCr laboratory-adapted strain in RD cells; conditions: Enterovirus A
[6] = in vitro; conditions: human; remark: listed apart in the source
[7] = system: EV71 VP1_S184T_ P246S (RES); format: cell-based
[8] = system: MT-4 cells; conditions: read-out: CC50 (MT-4); MT-4 cultures; host cell viability

Kd ([2]; KD (10^−6) (M), apparent KD, SPR, three replicates): 6.92e-06 M
Kd ([2]; apparent KD for binding to gp120, SPR): 6.9e-06 M
kon ([2]; read-out: Ka (10^3) (1/M.s)): 2760 ± 1000 M⁻¹ s⁻¹
EC50 ([3]; Human immunodeficiency virus 2, MT4, read-out: HIV-2 EC50): 5.9 ± 3.7 µM
EC50 ([4]; Human immunodeficiency virus 1, MT4, read-out: HIV-1 EC50): 3.3 ± 1.2 µM
Compound: CN[C@@H]1[C@H](O[C@@H]2OC[C@@H](O)[C@H](O)[C@H]2O)[C@@H](O)[C@H](O[C@H]2c3cc(C)c(C(=O)N[C@H](C)C(=O)O)c(O)c3-c3c(cc4c(c3O)C(=O)c3cc(OC)cc(O)c3C4=O)[C@@H]2O)O[C@@H]1C [PRM-A, pradimycin A]
CC50 [1]: > 100 µM

Compound: CCOC(=O)c1ccc(OCCC2CCN(c3ccc(C)nn3)CC2)cc1 [Pirodavir, pirodavir]
EC90 ([5]; EV71, RD, read-out: EV71 EC90): 0.6 ± 0.2 µM
CC50 [6]: > 100 µM

Compound: CCOC(=O)/C=C/[C@H](C[C@@H]1CCNC1=O)NC(=O)[C@@H](CC(=O)[C@@H](NC(=O)c1cc(C)on1)C(C)C)Cc1ccc(F)cc1 [Rupintrivir, rupintrivir]
antiviral activity against the mutant virus strain ([7]; EV-71 variant (RES)): retained full antiviral activity
EC50 ([7]; read-out: VP1_S184T_ P246S (RES) EC50): 0.016 ± 0.006 µM
EC50 ([5]; EV71|EVA71, RD, read-out: EV-A71 BrCr (WT) EC50): 0.014 ± 0.004 µM

Compound: dextran sulfate-5000 [DS-5000]
CC50 [8]: > 20 µM
EC50 ([3]; read-out: HIV-2 EC50, MT-4 cultures, inhibition of virus-induced cytopathicity by 50%): 0.03 ± 0.01 µM
EC50 ([4]; read-out: HIV-1 EC50, MT-4 cultures, inhibition of virus-induced cytopathicity by 50%): 0.07 ± 0.02 µM

From PMC7114229 (Antiviral Research, 2019)
